Results from ChEMBL document CHEMBL5120826, “Effects of β-lapachone and β-nor-lapachone on multidrug efflux transporters and biofilms of Candida glabrata” (Bioorg Med Chem, 2022).
Values after ≈ are worked out from the molar mass of the structure shown. Active and inactive are the calls of the source. The rule behind the calls is not given here.

Columns and labels:
Nakaseomyces glabratus [1] = assay: Indifferent antifungal activity against fluconazole resistant Candida glabrata 109 overexpressing CgCdr1p transporter assessed as reduction in fungal growth incubated for 48 hrs in presence of lapachone by checkboard assay based microplate reader analysis; type: functional
Nakaseomyces glabratus [2] = assay: Indifferent antifungal activity against fluconazole resistant Candida glabrata 109 overexpressing CgCdr1p transporter assessed as reduction in fungal growth incubated for 48 hrs by checkboard assay based microplate reader analysis; type: functional
Nakaseomyces glabratus [3] = assay: Antibiofilm activity against fluconazole sensitive Candida glabrata ATCC 2001 assessed as reduction in metabolic activity up to 200 ug/ml incubated for 48 hrs; type: functional; set-up: scale not given: the % may be the effect or the level left; details: dose <= 200 µg/ml, up to 200 µg/mL
Nakaseomyces glabratus [4] = assay: Antibiofilm activity against fluconazole resistant Candida glabrata 109 overexpressing CgCdr1p transporter assessed as reduction in metabolic activity at highest concentration incubated for 48 hrs; type: functional; set-up: scale not given: the % may be the effect or the level left
Saccharomyces cerevisiae [5] = assay: Antifungal activity against fluconazole resistant Saccharomyces cerevisiae overexpressing CgCdr1p transporter assessed as reduction in fungal growth incubated for 48 hrs by checkboard assay based microplate reader analysis; type: functional
Nakaseomyces glabratus [6] = assay: Antifungal activity against fluconazole resistant Candida glabrata 109 overexpressing CgCdr1p transporter assessed as reduction in fungal growth incubated for 48 hrs by checkboard assay based microplate reader analysis; type: functional
Nakaseomyces glabratus [7] = assay: Indifferent antifungal activity against fluconazole sensitive Candida glabrata ATCC 2001 assessed as reduction in fungal growth incubated for 48 hrs in presence of lapachone by checkboard assay based microplate reader analysis; type: functional
Nakaseomyces glabratus [8] = assay: Additive antifungal activity against fluconazole resistant Candida glabrata 109 overexpressing CgCdr1p transporter assessed as fractional inhibitory concentration incubated for 48 hrs in presence of lapachone by checkboard assay based microplate reader analysis; type: functional
Nakaseomyces glabratus [9] = assay: Indifferent antifungal activity against fluconazole sensitive Candida glabrata ATCC 2001 assessed as fractional inhibitory concentration incubated for 48 hrs in presence of lapachone by checkboard assay based microplate reader analysis; type: functional
Nakaseomyces glabratus [10] = assay: Indifferent antifungal activity against fluconazole sensitive Candida glabrata ATCC 2001 assessed as reduction in fungal growth incubated for 48 hrs in presence of fluconazole by checkboard assay based microplate reader analysis; type: functional
Nakaseomyces glabratus [11] = assay: Additive antifungal activity against fluconazole resistant Candida glabrata 109 overexpressing CgCdr1p transporter assessed as fractional inhibitory concentration incubated for 48 hrs in presence of fluconazole by checkboard assay based microplate reader analysis; type: functional
Nakaseomyces glabratus [12] = assay: Indifferent antifungal activity against fluconazole sensitive Candida glabrata ATCC 2001 assessed as fractional inhibitory concentration incubated for 48 hrs in presence of fluconazole by checkboard assay based microplate reader analysis; type: functional
Nakaseomyces glabratus [13] = assay: Additive antifungal activity against fluconazole resistant Candida glabrata 109 overexpressing CgCdr1p transporter assessed as fractional inhibitory concentration index incubated for 48 hrs by checkboard assay based microplate reader analysis; type: functional
Nakaseomyces glabratus [14] = assay: Indifferent antifungal activity against fluconazole sensitive Candida glabrata ATCC 2001 assessed as fractional inhibitory concentration index incubated for 48 hrs by checkboard assay based microplate reader analysis; type: functional
Saccharomyces cerevisiae [15] = assay: Antifungal activity against fluconazole resistant Saccharomyces cerevisiae overexpressing CgCdr1p transporter assessed as reduction in fungal growth at lower concentration incubated for 48 hrs by serial dilution method; type: functional, organism-based
Saccharomyces cerevisiae [16] = assay: Antifungal activity against fluconazole resistant Saccharomyces cerevisiae overexpressing CgCdr2p transporter assessed as reduction in fungal growth incubated for 48 hrs in presence of fluconazole by serial dilution method; type: functional, organism-based
Nakaseomyces glabratus [17] = assay: Antifungal activity against fluconazole resistant Candida glabrata 109 overexpressing CgCdr1p transporter assessed as reduction in fungal growth incubated for 48 hrs in presence of fluconazole by serial dilution method; type: functional, organism-based
Saccharomyces cerevisiae [18] = assay: Induction of ROS generation in fluconazole resistant Saccharomyces cerevisiae overexpressing CgCdr1p transporter assessed as fold increase in ROS level incubated for 90 mins by DCFH-DA dye based fluorescence assay; type: functional; details: 1.5 h
Nakaseomyces glabratus [19] = assay: Induction of ROS generation in fluconazole resistant Candida glabrata 109 overexpressing CgCdr1p assessed as fold increase in ROS level incubated for 90 mins by DCFH-DA dye based fluorescence assay; type: functional; details: 1.5 h
Saccharomyces cerevisiae [20] = assay: Effect on efflux pump function in fluconazole resistant Saccharomyces cerevisiae overexpressing CgCdr1p transporter assessed as accumulation of Nile red fluorescence incubated for 1 hr by fluorescence based assay; type: functional
Saccharomyces cerevisiae [21] = assay: Effect on efflux pump function in fluconazole resistant Saccharomyces cerevisiae overexpressing CgCdr2p transporter assessed as accumulation of Nile red fluorescence incubated for 1 hr by fluorescence based assay; type: functional
Nakaseomyces glabratus [22] = assay: Effect on efflux pump function in fluconazole resistant Candida glabrata 109 overexpressing CgCdr1p transporter assessed as accumulation of Nile red fluorescence incubated for 1 hr by fluorescence based assay; type: functional
Saccharomyces cerevisiae [23] = assay: Inhibition of fluconazole resistant Saccharomyces cerevisiae overexpressing CgCdr1p transporter ATPase activity assessed as reduction in inorganic phosphate release in presence of ATP incubated for 1 hr by Fiske and Sub barrow method; details: concentration not given here
[24] = Inhibition of fluconazole sensitive Candida glabrata ATCC 2001 […] cell adhesion to polystyrene at 200 ug/ml incubated for 90 mins by MTT assay; type: functional; details: Nakaseomyces glabratus, ATCC 2001, 1.5 h
Nakaseomyces glabratus [25] = assay: Antibiofilm activity against fluconazole resistant Candida glabrata 109 overexpressing CgCdr1p transporter assessed as inhibition of biofilm formation at 200 ug/ml incubated for 48 hrs; type: functional
Nakaseomyces glabratus [26] = assay: Antibiofilm activity against fluconazole sensitive Candida glabrata ATCC 2001 assessed as inhibition of biofilm formation at 200 ug/ml incubated for 48 hrs; type: functional
Nakaseomyces glabratus [27] = assay: Induction of ROS generation in fluconazole resistant Candida glabrata 109 overexpressing CgCdr1p transporter assessed as fold increase in ROS production at 200 ug/ml incubated for 48 hrs by DCFH-DA dye based fluorescence assay; type: functional
Nakaseomyces glabratus [28] = assay: Induction of morphological changes in fluconazole resistant Candida glabrata 109 overexpressing CgCdr1p transporter assessed as decrease in biofilm thickness at 200 ug/ml by calcofluor white dye based confocal laser scanning microscopy; type: functional, organism-based; details: dose 200.0 µg/ml
Nakaseomyces glabratus [29] = assay: Induction of morphological changes in fluconazole resistant Candida glabrata 109 overexpressing CgCdr1p transporter assessed as decrease in cell-cell adhesion at 200 ug/ml by calcofluor white dye based confocal laser scanning microscopy; type: functional, organism-based; details: dose 200.0 µg/ml
Nakaseomyces glabratus [30] = assay: Induction of morphological changes in fluconazole resistant Candida glabrata 109 overexpressing CgCdr1p transporter assessed as decrease in cellular density at 200 ug/ml by calcofluor white dye based confocal laser scanning microscopy; type: functional, organism-based; details: dose 200.0 µg/ml
Nakaseomyces glabratus [31] = assay: Induction of morphological changes in fluconazole resistant Candida glabrata 109 overexpressing CgCdr1p transporter assessed as decrease in number of cells within biofilm at 200 ug/ml incubated for 48 hrs by SEM analysis; type: functional, organism-based; details: dose 200.0 µg/ml
Nakaseomyces glabratus [32] = assay: Indifferent antifungal activity against fluconazole resistant Candida glabrata 109 overexpressing CgCdr1p transporter assessed as reduction in fungal growth incubated for 48 hrs in presence of fluconazole by checkboard assay based microplate reader analysis; type: functional
Nakaseomyces glabratus [33] = assay: Indifferent antifungal activity against fluconazole resistant Candida glabrata 109 overexpressing CgCdr1p transporter assessed as fractional inhibitory concentration index incubated for 48 hrs by checkboard assay based microplate reader analysis; type: functional
Saccharomyces cerevisiae [34] = assay: Synergistic antifungal activity against fluconazole resistant Saccharomyces cerevisiae overexpressing CgCdr2p transporter assessed as fractional inhibitory concentration index incubated for 48 hrs by checkboard assay based microplate reader analysis; type: functional

Row | SMILES | MIC (Nakaseomyces glabratus [1]) | MIC (Nakaseomyces glabratus [2]) | Activity (Nakaseomyces glabratus [3]) | Activity (Nakaseomyces glabratus [4]) | MIC (Saccharomyces cerevisiae [5]) | MIC (Nakaseomyces glabratus [6]) | MIC (Nakaseomyces glabratus [7]) | FIC (Nakaseomyces glabratus [8]) | FIC (Nakaseomyces glabratus [9]) | MIC (Nakaseomyces glabratus [10]) | FIC (Nakaseomyces glabratus [11]) | FIC (Nakaseomyces glabratus [12]) | fractional inhibitory concentration index (FICI) (Nakaseomyces glabratus [13]) | fractional inhibitory concentration index (FICI) (Nakaseomyces glabratus [14]) | Activity (Saccharomyces cerevisiae [15]) | Activity (Saccharomyces cerevisiae [16]) | Activity (Nakaseomyces glabratus [17]) | fold change (FC) (Saccharomyces cerevisiae [18]) | fold change (FC) (Nakaseomyces glabratus [19]) | Activity (Saccharomyces cerevisiae [20]) | further results
1 | CC1(C)CCC2=C(O1)c1ccccc1C(=O)C2=O [LAPACHONE] | > 200 µg/mL | > 200 µg/mL | 93% | 88% | 100 µg/mL (≈ 413 µM) | 25 µg/mL (≈ 103 µM) | 12.5 µg/mL | 0.5 µg/mL | 1 µg/mL | 15.6 µg/mL | 0.125 µg/mL | 1 µg/mL | 0.625 | 2 | Active | Active | Active | 3 | 5 | 100% | Activity (Saccharomyces cerevisiae [21]): 50%; Activity (Nakaseomyces glabratus [22]): 35%; inhibition (Saccharomyces cerevisiae [23]): 76%; inhibition at 200 µg/mL [24]: 55%; inhibition at 200 µg/mL (Nakaseomyces glabratus [25]): 72%; inhibition at 200 µg/mL (Nakaseomyces glabratus [26]): 95%; fold change (FC) (Nakaseomyces glabratus [27]; dose 200 µg/ml): 16; Activity (Nakaseomyces glabratus [28]): Active; Activity (Nakaseomyces glabratus [29]): Active; Activity (Nakaseomyces glabratus [30]): Active; Activity (Nakaseomyces glabratus [31]): Active; MIC (Nakaseomyces glabratus [32]): > 1000 µg/mL; fractional inhibitory concentration index (FICI) (Nakaseomyces glabratus [33]): 2; fractional inhibitory concentration index (FICI) (Saccharomyces cerevisiae [34]): 0.31
2 | CC1(C)CC2=C(O1)c1ccccc1C(=O)C2=O [NOR-BETA-LAPACHONE] | > 200 µg/mL | > 200 µg/mL | 81% | 46% | 50 µg/mL (≈ 219 µM) | 100 µg/mL (≈ 438 µM) | 100 µg/mL | 0.5 µg/mL | 1 µg/mL | 15.6 µg/mL | 0.125 µg/mL | 1 µg/mL | 0.625 | 2 | Active | Active | Active | 3 | 5 | 100% | Activity (Saccharomyces cerevisiae [21]): 50%; Activity (Nakaseomyces glabratus [22]): 100%; inhibition (Saccharomyces cerevisiae [23]): 25%; inhibition at 200 µg/mL [24]: 28%; inhibition at 200 µg/mL (Nakaseomyces glabratus [25]): 48%; inhibition at 200 µg/mL (Nakaseomyces glabratus [26]): 70%; Activity (Nakaseomyces glabratus [27]; dose 200.0 µg/ml): Active; Activity (Nakaseomyces glabratus [28]): Active; Activity (Nakaseomyces glabratus [29]): Active; Activity (Nakaseomyces glabratus [30]): Active; Activity (Nakaseomyces glabratus [31]): Active; MIC (Nakaseomyces glabratus [32]): > 1000 µg/mL; fractional inhibitory concentration index (FICI) (Nakaseomyces glabratus [33]): 2; fractional inhibitory concentration index (FICI) (Saccharomyces cerevisiae [34]): 0.37
